Literature values in patent US20190070210A1, “COMPOSITION AND METHODS FOR CONDITIONS ASSOCIATED WITH CHRONIC PULMONARY OBSTRUCTIVE DISEASE” (priority 2017, published 2019).

Details: solution, 4° C. and neutral pH

## NC(=O)c1ccc[n+]([C@@H]2O[C@H](COP(=O)([O-])OP(=O)(O)OC[C@H]3O[C@@H](n4cnc5c(N)ncnc54)[C@H](O)[C@@H]3O)[C@@H](O)[C@H]2O)c1 [NAD+, nicotinamide adenine dinucleotide]
  time for which solutions are stable: about a week
